The source of these data is patent US9708244B2, “Coloring material and method for producing the same” (DAI NIPPON PRINTING CO., LTD., priority 2012, dated 2017).

Structures are written as SMILES.

Type in all cases: physicochemical
Data set [1] in a line: Evaluation of color change in color materials (absorption spectrum in methanol). As to conditions: 10 mg in 100 mL methanol, diluted 20-fold, 1 cm cell, FIG. 1. On the procedure:
First, 10 mg of each of the color materials A and C obtained in Examples 1 and 3 was dissolved in 100 mL of methanol and diluted 20-fold, thereby obtaining a measurement solution. The absorption spectrum of the solution was measured by using a 1 cm quarts cell in spectrophotometer U-3500 manufactured by Hitachi, Ltd. Next, 10 mg of BB7 (monomer) was dissolved in 100 mL of methanol and diluted 20-fold, thereby obtaining a measurement solution as a control product. The absorption spectrum of the solution was measured by the same method as above.

Data set [2] is described as follows: Evaluation of weight reduction rate (TG-DTA, held at 230° C.). As to conditions: heated to 230° C. at 20° C./min, kept 60 minutes. How it is done: As a reference, alumina was put in a quarts pan. Using differential thermogravimetric analyzer (TG-DTA) TG8120 (manufactured by Rigaku Corporation), they were heated to 230° C. at a heating rate of 20° C./min. From the time when they reached 230° C., they were kept at the same temperature for 60 minutes and then measured for the weight reduction rate. The weight reduction rate is calculated by the following formula and can be used as an indicator of heat resistance. Weight reduction rate=(“weight before heating”−“weight after heating”)/“weight before heating”×100(%) <Evaluation of Dyeing Property> (1) Fabric Dyeing

Data set [3] can be described thus: Evaluation of thermal decomposition temperature (TG-DTA). As to conditions: heating rate 5° C./min to 800° C., extrapolated temperature of TG curve peak. How it is done: As a reference, alumina was put in a quarts pan. Using horizontal differential thermogravimetric-differential thermal analyzer (TG-DTA) TG8120 (manufactured by Rigaku Corporation), they were measured at a heating rate of 5° C./min to 800° C. The extrapolated temperature of the peak of the thus-obtained TG curve was used as a decomposition point, and the temperature at the decomposition point was used as a thermal decomposition temperature. The thermal decomposition temperature can be used as an indicator of heat resistance.

`CCN(CC)c1ccc(C(=C2C=CC(=[N+](CC)CC)C=C2)c2ccc(NCc3ccc(CNc4ccc(C(=C5C=CC(=[N+](CC)CC)C=C5)c5ccc(N(CC)CC)cc5)c5ccccc45)cc3)c3ccccc23)cc1.[Cl-].[Cl-]` [Color material A]: in data set [1], the “Color change versus BB7 (absorption spectrum peak form)” value is “almost no change in color”. In data set [2], the “Weight reduction rate (230° C. for 1 hr)” value is recorded as −28.9%. Moreover, the Thermal decomposition temperature in data set [3] was 247 °C.

With `CCN(CC)c1ccc(C(=C2C=CC(=[N+](CC)CC)C=C2)c2ccc(NCc3ccc(CNc4ccc(C(=C5C=CC(=[N+](CC)CC)C=C5)c5ccc(N(CC)CC)cc5)c5ccccc45)cc3)c3ccccc23)cc1` [Color material B], the “Weight reduction rate (230° C. for 1 hr)” value in data set [2] is −29.1%. Besides, the Thermal decomposition temperature in data set [3] is 255 °C.

Turning to `CCNc1ccc(C(=C2C=CC(=[N+](CC)CC)C=C2)c2ccc(N(CC)CC)cc2)c2ccccc12.[Cl-]` [Color material D, Basic Blue 7 (CI-42595)], the “Weight reduction rate (230° C. for 1 hr)” value in data set [2] was −40.2%. Moreover, in data set [3], the Thermal decomposition temperature is 218 °C.

With `CCNc1ccc(C(=C2C=CC(=[N+](CC)CC)C=C2)c2ccc(N(CC)CC)cc2)c2ccccc12.Cc1ccc(S(=O)(=O)[O-])cc1` [Color material E], in data set [2], the “Weight reduction rate (230° C. for 1 hr)” value is −38.3%. Further, the Thermal decomposition temperature in data set [3] was 245 °C.

Consider `CCNc1ccc(C(=C2C=CC(=[N+](CC)CC)C=C2)c2ccc(N(CC)CC)cc2)c2ccccc12` [Color material F], for which the “Weight reduction rate (230° C. for 1 hr)” value in data set [2] is given as −33.8%. Moreover, the Thermal decomposition temperature in data set [3] is 236 °C.
